Data reported in patent US20240158385A1, “NOVEL COMPOUNDS” (Cerevance, Inc., priority 2021, published 2024).

What follows are compounds tested against T1, human KCNK13 (Homo sapiens, UniProt Q9HB14) (assay: KCNK13 antagonist activity, thallium (Tl+) flux FLIPR assay). Conditions: HEK 293 cells stably expressing human KCNK13; Tl+ sensitive dye, FLIPR; compounds 15 minutes prior to thallium sulfate; 10 point half log curves from 10 PM; read-out: hKCNK13 IC50.
T1 construct: expressed in transfected cells
T1 sequence (Q9HB14 1-408): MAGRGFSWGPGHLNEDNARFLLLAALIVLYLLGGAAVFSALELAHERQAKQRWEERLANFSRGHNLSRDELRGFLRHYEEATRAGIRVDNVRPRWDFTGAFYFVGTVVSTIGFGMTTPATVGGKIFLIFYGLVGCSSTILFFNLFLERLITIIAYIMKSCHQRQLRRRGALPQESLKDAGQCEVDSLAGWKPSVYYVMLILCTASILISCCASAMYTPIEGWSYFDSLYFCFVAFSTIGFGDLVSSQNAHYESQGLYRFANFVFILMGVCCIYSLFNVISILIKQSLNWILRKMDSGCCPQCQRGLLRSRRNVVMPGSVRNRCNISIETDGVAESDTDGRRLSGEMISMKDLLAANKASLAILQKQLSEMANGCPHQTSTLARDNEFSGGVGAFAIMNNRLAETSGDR
Format: cell-based
Method in brief: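 HEK 293 cells stably expressing human KCNK13 loaded with Tl+-sensitive dye for 1 h at room temperature. Compounds (10-point half-log curves) preincubated 15 min before thallium sulfate stimulus, fluorescence tracked by FLIPR. IC50 from ten-point curves, each point the mean of two wells.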

Row | Compound | IC50 [nM]
1 | Cc1nonc1-c1nc2cccc(N)c2n1Cc1cccnc1 [Example 72, 2-(4-methyl-1,2,5-oxadiazol-3-yl)-3-(pyridin-3-ylmethyl)benzimidazol-4-amine] | < 500
2 | CNc1ccc(Cn2c(-c3nonc3C)nc3ccccc32)cn1 [Example 73, N-methyl-5-[[2-(4-methyl-1,2,5-oxadiazol-3-yl)benzimidazol-1-yl]methyl]pyridin-2-amine] | < 500
3 | Cc1cc(Cn2c(-c3nonc3C)nc3ccccc32)ccn1 [Example 74, 3-methyl-4-[1-[(2-methylpyridin-4-yl)methyl]benzimidazol-2-yl]-1,2,5-oxadiazole] | < 500
4 | Cc1cc(C)nc(Cn2c(-c3nonc3C)nc3ccccc32)c1 [Example 75, 3-[1-[(4,6-dimethylpyridin-2-yl)methyl]benzimidazol-2-yl]-4-methyl-1,2,5-oxadiazole] | < 500
5 | Cc1nonc1-c1nc2ccccc2n1Cc1ccc[n+]([O-])c1 [Example 76, 3-methyl-4-[1-[(1-oxidopyridin-1-ium-3-yl)methyl]benzimidazol-2-yl]-1,2,5-oxadiazole] | < 500
6 | Cc1nonc1-c1nc2ccccc2n1Cc1cc[n+]([O-])cc1 [Example 77, 3-methyl-4-[1-[(1-oxidopyridin-1-ium-4-yl)methyl]benzimidazol-2-yl]-1,2,5-oxadiazole] | < 1000
7 | Cc1cccc(Cn2c(-c3nonc3C)nc3ccccc32)n1 [Example 78, 3-methyl-4-[1-[(6-methylpyridin-2-yl)methyl]benzimidazol-2-yl]-1,2,5-oxadiazole] | < 500
8 | Cc1nonc1-c1nc2ccccc2n1Cc1ccccn1 [Example 79, 3-methyl-4-[1-(pyridin-2-ylmethyl)benzimidazol-2-yl]-1,2,5-oxadiazole] | < 500
9 | Cc1nsnc1-c1nc2ccc(F)cc2n1Cc1ccc(C#N)nc1 [Example 80, 5-[[6-fluoro-2-(4-methyl-1,2,5-thiadiazol-3-yl)benzimidazol-1-yl]methyl]pyridine-2-carbonitrile] | < 1000
10 | CNc1cccc2nc(-c3nonc3C)n(Cc3cccnc3)c12 [Example 81, N-methyl-2-(4-methyl-1,2,5-oxadiazol-3-yl)-3-(pyridin-3-ylmethyl)benzimidazol-4-amine] | < 1000
11 | Cc1nonc1-c1nc2ccccc2n1Cc1ncccc1F [Example 82, 3-[1-[(3-fluoropyridin-2-yl)methyl]benzimidazol-2-yl]-4-methyl-1,2,5-oxadiazole] | < 1000
12 | Nc1nonc1-c1nc2ccccc2n1Cc1ccc(Br)nc1 [Example 88, 4-(1-((6-bromopyridin-3-yl)methyl)benzimidazol-2-yl)-1,2,5-oxadiazol-3-amine] | < 50
13 | Fc1nsnc1-c1nc2ccccc2n1Cc1cccnc1 [Example 108, 3-fluoro-4-[1-(pyridin-3-ylmethyl)benzimidazol-2-yl]-1,2,5-thiadiazole] | < 500
14 | Nc1nonc1-c1nc2ccccc2n1Cc1cccnc1C(F)(F)F [Example 109, 4-[1-[[2-(trifluoromethyl)pyridin-3-yl]methyl]benzimidazol-2-yl]-1,2,5-oxadiazol-3-amine] | < 500
15 | Cc1nonc1-c1nc2ccncc2n1Cc1cccnc1 [Example 110, 3-methyl-4-[3-(pyridin-3-ylmethyl)imidazo[4,5-c]pyridin-2-yl]-1,2,5-oxadiazole] | < 500
16 | Cc1onc(-c2nc3ccccc3n2Cc2cccnc2)c1C [Example 111, 4,5-dimethyl-3-[1-(pyridin-3-ylmethyl)benzimidazol-2-yl]isoxazole] | < 500
17 | Cc1nocc1-c1nc2ccccc2n1Cc1cccnc1 [Example 112, 3-methyl-4-[1-(pyridin-3-ylmethyl)benzimidazol-2-yl]isoxazole] | < 500

Continued, values first:

Row | IC50 [nM] | Compound
18 | < 200 | COc1cc(Cn2c(-c3nonc3C)nc3ccccc32)ccn1 [Example 66, 3-[1-[(2-methoxypyridin-4-yl)methyl]benzimidazol-2-yl]-4-methyl-1,2,5-oxadiazole]
19 | < 200 | Cc1nonc1-c1nc2ccccc2n1Cc1cccnc1C#N [Example 67, 3-[[2-(4-methyl-1,2,5-oxadiazol-3-yl)benzimidazol-1-yl]methyl]pyridine-2-carbonitrile]
20 | < 200 | Fc1cccc2nc(-c3cnns3)n(Cc3cccnc3)c12 [Example 68, 5-[7-fluoro-1-(pyridin-3-ylmethyl)benzimidazol-2-yl]-1,2,3-thiadiazole]
21 | < 200 | Cc1cccnc1Cn1c(-c2nonc2C)nc2ccccc21 [Example 69, 3-methyl-4-[1-[(3-methylpyridin-2-yl)methyl]benzimidazol-2-yl]-1,2,5-oxadiazole]
22 | < 500 | CCOc1cccc2nc(-c3nonc3C)n(Cc3ccncc3)c12 [Example 70, 3-[7-ethoxy-1-(pyridin-4-ylmethyl)benzimidazol-2-yl]-4-methyl-1,2,5-oxadiazole]
23 | < 200 | Cc1nonc1-c1nc2c(F)ccc(F)c2n1Cc1cnc(C#N)nc1 [Example 83, 5-[[4,7-difluoro-2-(4-methyl-1,2,5-oxadiazol-3-yl)benzimidazol-1-yl]methyl]pyrimidine-2-carbonitrile]
24 | < 100 | Cc1nonc1-c1nc2c(F)ccc(F)c2n1Cc1cncnc1 [Example 84, 3-[4,7-difluoro-1-(pyrimidin-5-ylmethyl)benzimidazol-2-yl]-4-methyl-1,2,5-oxadiazole]
25 | < 50 | C=Cc1nsnc1-c1nc2ccccc2n1Cc1cccnc1 [Example 89, 3-[1-(pyridin-3-ylmethyl)benzimidazol-2-yl]-4-vinyl-1,2,5-thiadiazole]
26 | < 50 | Nc1nonc1-c1nc2ccccc2n1Cc1cccnc1 [Example 90, 4-[1-(pyridin-3-ylmethyl)benzimidazol-2-yl]-1,2,5-oxadiazol-3-amine]
27 | < 50 | Nc1nonc1-c1nc2ccc(F)cc2n1Cc1ccncc1 [Example 91, 4-[6-fluoro-1-(pyridin-4-ylmethyl)benzimidazol-2-yl]-1,2,5-oxadiazol-3-amine]
28 | < 50 | Nc1nonc1-c1nc2cc(F)ccc2n1Cc1ccncc1 [Example 92, 4-[5-fluoro-1-(pyridin-4-ylmethyl)benzimidazol-2-yl]-1,2,5-oxadiazol-3-amine]
29 | < 50 | COc1cc(Cn2c(-c3nonc3N)nc3ccccc32)ccn1 [Example 93, 4-[1-[(2-methoxypyridin-4-yl)methyl]benzimidazol-2-yl]-1,2,5-oxadiazol-3-amine]
30 | < 100 | Nc1nonc1-c1nc2ccccc2n1Cc1ccnc(C(F)(F)F)c1 [Example 94, 4-[1-[[2-(trifluoromethyl)pyridin-4-yl]methyl]benzimidazol-2-yl]-1,2,5-oxadiazol-3-amine]
31 | < 100 | Nc1nonc1-c1nc2ccccc2n1Cc1cncc(C(F)(F)F)c1 [Example 95, 4-[1-[[5-(trifluoromethyl)pyridin-3-yl]methyl]benzimidazol-2-yl]-1,2,5-oxadiazol-3-amine]
32 | < 100 | CNc1nsnc1-c1nc2ccccc2n1Cc1cccnc1 [Example 96, N-methyl-4-[1-(pyridin-3-ylmethyl)benzimidazol-2-yl]-1,2,5-thiadiazol-3-amine]
33 | < 100 | Nc1nonc1-c1nc2ccccc2n1Cc1ccc(C(F)(F)F)nc1 [Example 97, 4-[1-[[6-(trifluoromethyl)pyridin-3-yl]methyl]benzimidazol-2-yl]-1,2,5-oxadiazol-3-amine]
34 | < 100 | Cc1nonc1-c1nc2ccccc2n1Cc1ccncc1 [Example 98, 3-methyl-4-[1-(pyridin-4-ylmethyl)benzimidazol-2-yl]-1,2,5-oxadiazole]
35 | < 100 | N#Cc1nsnc1-c1nc2ccccc2n1Cc1cccnc1 [Example 99, 4-[1-(pyridin-3-ylmethyl)benzimidazol-2-yl]-1,2,5-thiadiazole-3-carbonitrile]
36 | < 200 | Cc1ccsc1-c1nc2ccccc2n1Cc1cccnc1 [Example 100, 2-(3-methylthiophen-2-yl)-1-(pyridin-3-ylmethyl)benzimidazole]
37 | < 100 | Cc1nonc1-c1nc2ccccc2n1Cc1cccnc1 [Example 101, 3-methyl-4-[1-(pyridin-3-ylmethyl)benzimidazol-2-yl]-1,2,5-oxadiazole]
38 | < 200 | Cc1snnc1-c1nc2ccccc2n1Cc1cccnc1 [Example 102, 5-methyl-4-[1-(pyridin-3-ylmethyl)benzimidazol-2-yl]-1,2,3-thiadiazole]
39 | < 200 | Cc1ocnc1-c1nc2ccccc2n1Cc1cccnc1 [Example 103, 5-methyl-4-[1-(pyridin-3-ylmethyl)benzimidazol-2-yl]oxazole]
40 | < 200 | Cc1conc1-c1nc2ccccc2n1Cc1cccnc1 [Example 104, 4-methyl-3-[1-(pyridin-3-ylmethyl)benzimidazol-2-yl]isoxazole]
41 | < 200 | CCc1nsnc1-c1nc2ccccc2n1Cc1cccnc1 [Example 105, 3-ethyl-4-[1-(pyridin-3-ylmethyl)benzimidazol-2-yl]-1,2,5-thiadiazole]
42 | < 200 | Nc1nonc1-c1nc2ccccc2n1Cc1ccncn1 [Example 106, 4-[1-(pyrimidin-4-ylmethyl)benzimidazol-2-yl]-1,2,5-oxadiazol-3-amine]
43 | < 200 | Nc1nonc1-c1nc2ccccc2n1Cc1ccnnc1 [Example 107, 4-[1-(pyridazin-4-ylmethyl)benzimidazol-2-yl]-1,2,5-oxadiazol-3-amine]
